Experimental data published in ChEMBL document CHEMBL2440076, “New triarylpyrazoles as broad-spectrum anticancer agents: design, synthesis, and biological evaluation” (Eur J Med Chem, 2013).

How the values were obtained:
[1] = tested on: MDA-MB-468; experiment: Growth inhibition of human MDA-MB-468 cells assessed as cell growth at 10 uM after 48 hrs by sulforhodamine B assay; format: functional; settings: MDA-MB-468, 48 h, read-out: Activity
[2] = tested on: BT-549; experiment: Growth inhibition of human BT549 cells assessed as cell growth at 10 uM after 48 hrs by sulforhodamine B assay; format: functional; settings: BT-549, 48 h, read-out: Activity
[3] = Growth inhibition of human Hs 578T cells assessed as cell growth at 10 uM after 48 hrs by sulforhodamine B assay; format: functional; settings: read-out: Activity
[4] = tested on: MDA-MB-231; experiment: Growth inhibition of human MDA-MB-231 cells assessed as cell growth at 10 uM after 48 hrs by sulforhodamine B assay; format: functional; settings: MDA-MB-231, 48 h, read-out: Activity
[5] = tested on: DU-145; experiment: Growth inhibition of human DU145 cells assessed as cell growth at 10 uM after 48 hrs by sulforhodamine B assay; format: functional; settings: DU-145, 48 h, read-out: Activity
[6] = tested on: TK-10; experiment: Growth inhibition of human TK10 cells assessed as cell growth at 10 uM after 48 hrs by sulforhodamine B assay; format: functional; settings: TK-10, 48 h, read-out: Activity
[7] = tested on: NCI-H522; experiment: Growth inhibition of human NCI-H522 cells after 48 hrs by sulforhodamine B assay; format: functional; settings: NCI-H522, 48 h
[8] = tested on: HOP-62; experiment: Growth inhibition of human HOP62 cells after 48 hrs by sulforhodamine B assay; format: functional; settings: HOP-62, 48 h; for CC50: read-out: LC50 (the source's name)
[9] = tested on: SR; experiment: Growth inhibition of human SR cells after 48 hrs by sulforhodamine B assay; format: functional; settings: for CC50: read-out: LC50 (the source's name)
[10] = tested on: MOLT-4; experiment: Growth inhibition of human MOLT4 cells after 48 hrs by sulforhodamine B assay; format: functional; settings: MOLT-4, 48 h; for CC50: read-out: LC50 (the source's name)
[11] = tested on: HL-60(TB); experiment: Growth inhibition of human HL-60(TB) cells after 48 hrs by sulforhodamine B assay; format: functional; settings: HL-60, 48 h; for CC50: read-out: LC50 (the source's name)
[12] = tested on: UACC-257; experiment: Growth inhibition of human UACC257 cells assessed as cell growth at 10 uM after 48 hrs by sulforhodamine B assay; format: functional; settings: UACC-257, 48 h, read-out: Activity
[13] = tested on: MDA-MB-435; experiment: Growth inhibition of human MDA-MB-435 cells assessed as cell growth at 10 uM after 48 hrs by sulforhodamine B assay; format: functional; settings: MDA-MB-435, 48 h, read-out: Activity
[14] = tested on: HT-29; experiment: Growth inhibition of human HT-29 cells assessed as cell growth at 10 uM after 48 hrs by sulforhodamine B assay; format: functional; settings: HT-29, 48 h, read-out: Activity
[15] = tested on: KM12; experiment: Growth inhibition of human KM12 cells assessed as cell growth at 10 uM after 48 hrs by sulforhodamine B assay; format: functional; settings: KM12, 48 h, read-out: Activity
[16] = tested on: HCT-116; experiment: Growth inhibition of human HCT116 cells assessed as cell growth at 10 uM after 48 hrs by sulforhodamine B assay; format: functional; settings: HCT-116, 48 h, read-out: Activity
[17] = tested on: COLO 205; experiment: Growth inhibition of human COLO205 cells assessed as cell growth at 10 uM after 48 hrs by sulforhodamine B assay; format: functional; settings: COLO 205, 48 h, read-out: Activity
[18] = tested on: NCI-H23; experiment: Growth inhibition of human NCI-H23 cells assessed as cell growth at 10 uM after 48 hrs by sulforhodamine B assay; format: functional; settings: NCI-H23, 48 h, read-out: Activity
[19] = tested on: NCI-H226; experiment: Growth inhibition of human NCI-H226 cells assessed as cell growth at 10 uM after 48 hrs by sulforhodamine B assay; format: functional; settings: NCI-H226, 48 h, read-out: Activity
[20] = tested on: SN12C; experiment: Growth inhibition of human SN12C cells after 48 hrs by sulforhodamine B assay; format: functional; settings: for CC50: read-out: LC50 (the source's name)
[21] = tested on: ACHN; experiment: Growth inhibition of human ACHN cells after 48 hrs by sulforhodamine B assay; format: functional; settings: for CC50: read-out: LC50 (the source's name)
[22] = tested on: 786-0; experiment: Growth inhibition of human 786-0 cells after 48 hrs by sulforhodamine B assay; format: functional; settings: 786-0, 48 h; for CC50: read-out: LC50 (the source's name)
[23] = tested on: SK-OV-3; experiment: Growth inhibition of human SKOV3 cells after 48 hrs by sulforhodamine B assay; format: functional; settings: SK-OV-3, 48 h; for CC50: read-out: LC50 (the source's name)
[24] = tested on: OVCAR-8; experiment: Growth inhibition of human OVCAR8 cells after 48 hrs by sulforhodamine B assay; format: functional; settings: OVCAR-8, 48 h; for CC50: read-out: LC50 (the source's name)
[25] = tested on: IGROV-1; experiment: Growth inhibition of human IGROV1 cells after 48 hrs by sulforhodamine B assay; format: functional; settings: IGROV-1, 48 h
[26] = tested on: UACC-62; experiment: Growth inhibition of human UACC62 cells after 48 hrs by sulforhodamine B assay; format: functional; settings: UACC-62, 48 h
[27] = tested on: SK-MEL-28; experiment: Growth inhibition of human SK-MEL-28 cells after 48 hrs by sulforhodamine B assay; format: functional; settings: SK-MEL-28, 48 h
[28] = tested on: SK-MEL-2; experiment: Growth inhibition of human SK-MEL-2 cells after 48 hrs by sulforhodamine B assay; format: functional; settings: SK-MEL-2, 48 h
[29] = tested on: M14; experiment: Growth inhibition of human M14 cells after 48 hrs by sulforhodamine B assay; format: functional; settings: M14, 48 h
[30] = tested on: U-251; experiment: Growth inhibition of human U251 cells after 48 hrs by sulforhodamine B assay; format: functional; settings: U-251, 48 h
[31] = tested on: SF-268; experiment: Growth inhibition of human SF268 cells after 48 hrs by sulforhodamine B assay; format: functional; settings: SF-268, 48 h; for CC50: read-out: LC50 (the source's name)
[32] = tested on: SF-295; experiment: Growth inhibition of human SF295 cells after 48 hrs by sulforhodamine B assay; format: functional, cell-based; settings: SF-295, 48 h; for CC50: read-out: LC50 (the source's name)
[33] = tested on: MOLT-4; experiment: Growth inhibition of human MOLT4 cells assessed as cell growth at 10 uM after 48 hrs by sulforhodamine B assay; format: functional; settings: MOLT-4, 48 h, read-out: Activity
[34] = tested on: K562; experiment: Growth inhibition of human K562 cells assessed as cell growth at 10 uM after 48 hrs by sulforhodamine B assay; format: functional; settings: K562, 48 h, read-out: Activity

SMILES: COc1cc(-c2nn(-c3cccc(NC(=O)Nc4cccc(C(F)(F)F)c4)c3)cc2-c2ccncc2)ccc1Cl
- growth at 10 µM [1]: -27.6%
- growth at 10 µM [2]: -15.4%
- growth at 10 µM [3]: -13.7%
- growth at 10 µM [4]: -28.8%
- growth at 10 µM [5]: 9.75%
- growth at 10 µM [6]: 2.65%
- GI50 [7]: 0.714 µM
- LC50 (concentration killing 50% of cells) [7]: > 50 µM
- TGI [7]: 2.43 µM
- GI50 [8]: 1.34 µM
- TGI [8]: 4.07 µM
- CC50 [8]: > 50 µM
- GI50 [9]: 0.886 µM
- TGI [9]: 2.84 µM
- CC50 [9]: > 50 µM
- GI50 [10]: 0.936 µM
- TGI [10]: 3.48 µM
- CC50 [10]: > 50 µM
- GI50 [11]: 1.37 µM
- TGI [11]: > 50 µM
- CC50 [11]: > 50 µM
- growth at 10 µM [12]: -52.9%
- growth at 10 µM [13]: -50%
- growth at 10 µM [14]: -64%
- growth at 10 µM [15]: -27.8%
- growth at 10 µM [16]: 0.06%
- growth at 10 µM [17]: -88.9%
- growth at 10 µM [18]: -12.4%
- growth at 10 µM [19]: 4.3%
- GI50 [20]: 1.4 µM
- TGI [20]: 21.9 µM
- CC50 [20]: > 50 µM
- GI50 [21]: 0.656 µM
- TGI [21]: 3.72 µM
- CC50 [21]: > 50 µM
- GI50 [22]: 1.28 µM
- TGI [22]: 4.05 µM
- CC50 [22]: > 50 µM
- GI50 [23]: 2.02 µM
- TGI [23]: > 50 µM
- CC50 [23]: > 50 µM
- GI50 [24]: 0.739 µM
- TGI [24]: 2.7 µM
- CC50 [24]: > 50 µM
- GI50 [25]: 1.06 µM
- LC50 (concentration killing 50% of cells) [25]: 50 µM
- TGI [25]: 3.11 µM
- GI50 [26]: 0.725 µM
- LC50 (50% lethal concentration) [26]: 3.48 µM
- TGI [26]: 1.59 µM
- GI50 [27]: 1.12 µM
- LC50 [27]: 21.1 µM
- TGI [27]: 3.35 µM
- GI50 [28]: 0.97 µM
- LC50 (50% lethal concentration) [28]: 3.96 µM
- TGI [28]: 1.96 µM
- GI50 [29]: 0.754 µM
- LC50 (concentration killing 50% of cells) [29]: 4.65 µM
- TGI [29]: 1.87 µM
- GI50 [30]: 0.645 µM
- LC50 (concentration killing 50% of cells) [30]: 2.92 µM
- TGI [30]: 1.37 µM
- GI50 [31]: 1.36 µM
- TGI [31]: 5.43 µM
- CC50 [31]: 50 µM
- GI50 [32]: 0.306 µM
- IC50 [32]: 0.31 µM
- TGI [32]: 1.13 µM
- CC50 [32]: 3.2 µM
- growth at 10 µM [33]: -26.3%
- growth at 10 µM [34]: 1.6%

SMILES: COc1cc(-c2nn(-c3cccc(NC(=O)c4cccc(C(F)(F)F)c4)c3)cc2-c2ccncc2)ccc1Cl
- growth at 10 µM [1]: -19.4%
- growth at 10 µM [2]: 26%
- growth at 10 µM [3]: -5.69%
- growth at 10 µM [4]: 4.67%
- growth at 10 µM [5]: 2.16%
- growth at 10 µM [6]: 8.08%
- GI50 [7]: 1.05 µM
- LC50 (concentration killing 50% of cells) [7]: > 50 µM
- TGI [7]: 3.85 µM
- TGI [8]: > 50 µM
- CC50 [8]: > 50 µM
- GI50 [9]: 0.838 µM
- TGI [9]: 4.59 µM
- CC50 [9]: > 50 µM
- GI50 [10]: 2.01 µM
- TGI [10]: > 50 µM
- CC50 [10]: > 50 µM
- GI50 [11]: 2.02 µM
- TGI [11]: > 50 µM
- CC50 [11]: > 50 µM
- growth at 10 µM [12]: 34.5%
- growth at 10 µM [13]: -39.6%
- growth at 10 µM [14]: -12.1%
- growth at 10 µM [15]: 13.4%
- growth at 10 µM [16]: 8.15%
- growth at 10 µM [17]: 7.11%
- growth at 10 µM [18]: 24.8%
- growth at 10 µM [19]: 36.2%
- GI50 [20]: 3.31 µM
- TGI [20]: > 50 µM
- CC50 [20]: > 50 µM
- GI50 [21]: 1.89 µM
- TGI [21]: > 50 µM
- CC50 [21]: > 50 µM
- GI50 [22]: 2.45 µM
- TGI [22]: > 50 µM
- CC50 [22]: > 50 µM
- GI50 [23]: 2.29 µM
- TGI [23]: > 50 µM
- CC50 [23]: > 50 µM
- GI50 [24]: 2 µM
- TGI [24]: > 50 µM
- CC50 [24]: > 50 µM
- GI50 [25]: 1.83 µM
- LC50 (concentration killing 50% of cells) [25]: > 50 µM
- TGI [25]: > 50 µM
- GI50 [26]: 1.94 µM
- LC50 (50% lethal concentration) [26]: > 50 µM
- TGI [26]: > 50 µM
- GI50 [27]: 2.49 µM
- LC50 [27]: > 50 µM
- TGI [27]: > 50 µM
- GI50 [28]: 1.56 µM
- LC50 (50% lethal concentration) [28]: > 50 µM
- TGI [28]: > 50 µM
- GI50 [29]: 1.63 µM
- LC50 (concentration killing 50% of cells) [29]: > 50 µM
- TGI [29]: > 50 µM
- GI50 [30]: 1.62 µM
- LC50 (concentration killing 50% of cells) [30]: > 50 µM
- TGI [30]: > 50 µM
- GI50 [31]: 2.13 µM
- TGI [31]: > 50 µM
- CC50 [31]: > 50 µM
- GI50 [32]: 1.02 µM
- IC50 [32]: 1.02 µM
- TGI [32]: 3 µM
- CC50 [32]: > 50 µM
- growth at 10 µM [33]: 8.63%
- growth at 10 µM [34]: 6.11%
